ChEMBL document CHEMBL1201862, “PubChem BioAssay data set” (2004)
One block for each molecule: values may come before it. Activity calls are given as the source filed them.

What was measured:
[1] = molecular target: T1, Sentrin-specific protease 6 (Homo sapiens, UniProt Q9GZR1); experiment: SAR Analysis of small molecule inhibitors of Sentrin-specific protease 6 (SENP6) using a Luminescent assay. [Related pubchem assays (depositor defined):AID2582, AID2599]; assay type: functional
T1 sequence (Q9GZR1 whole entry): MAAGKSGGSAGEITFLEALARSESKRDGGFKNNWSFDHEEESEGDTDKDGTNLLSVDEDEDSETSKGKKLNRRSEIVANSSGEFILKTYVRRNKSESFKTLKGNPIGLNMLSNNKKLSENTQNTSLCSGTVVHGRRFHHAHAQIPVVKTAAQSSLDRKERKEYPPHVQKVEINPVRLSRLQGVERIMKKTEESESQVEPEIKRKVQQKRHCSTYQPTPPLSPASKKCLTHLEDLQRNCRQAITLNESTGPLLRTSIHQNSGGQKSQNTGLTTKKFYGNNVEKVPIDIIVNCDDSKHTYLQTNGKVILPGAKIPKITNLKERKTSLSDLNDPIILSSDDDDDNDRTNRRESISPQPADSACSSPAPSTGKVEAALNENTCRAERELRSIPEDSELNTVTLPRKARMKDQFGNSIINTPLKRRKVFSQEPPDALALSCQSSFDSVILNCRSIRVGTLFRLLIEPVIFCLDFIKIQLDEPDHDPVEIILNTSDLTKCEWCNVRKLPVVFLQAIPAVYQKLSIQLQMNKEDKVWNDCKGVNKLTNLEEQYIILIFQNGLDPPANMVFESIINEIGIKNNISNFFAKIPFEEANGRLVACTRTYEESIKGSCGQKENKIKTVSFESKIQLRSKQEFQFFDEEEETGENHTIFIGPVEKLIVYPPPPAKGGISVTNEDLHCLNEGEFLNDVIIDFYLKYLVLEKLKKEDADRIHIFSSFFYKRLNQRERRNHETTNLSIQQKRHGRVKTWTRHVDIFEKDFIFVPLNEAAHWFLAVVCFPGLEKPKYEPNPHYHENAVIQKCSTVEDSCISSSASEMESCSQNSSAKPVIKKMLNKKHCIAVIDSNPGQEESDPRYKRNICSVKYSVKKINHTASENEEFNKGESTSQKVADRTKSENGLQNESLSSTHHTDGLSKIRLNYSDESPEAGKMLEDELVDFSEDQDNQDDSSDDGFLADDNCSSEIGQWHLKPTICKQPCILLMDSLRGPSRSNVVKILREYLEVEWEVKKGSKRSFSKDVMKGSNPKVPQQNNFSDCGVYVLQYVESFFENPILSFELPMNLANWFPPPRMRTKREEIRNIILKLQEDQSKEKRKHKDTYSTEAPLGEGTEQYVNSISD

[2] = molecular target: T2, Sentrin-specific protease 8 (Homo sapiens, UniProt Q96LD8); experiment: inhibition of human SENP8 cleavage activity – biochemical, luminescence, SAR follow-up (AID 504501); assay type: functional
T2 sequence (Q96LD8 whole entry): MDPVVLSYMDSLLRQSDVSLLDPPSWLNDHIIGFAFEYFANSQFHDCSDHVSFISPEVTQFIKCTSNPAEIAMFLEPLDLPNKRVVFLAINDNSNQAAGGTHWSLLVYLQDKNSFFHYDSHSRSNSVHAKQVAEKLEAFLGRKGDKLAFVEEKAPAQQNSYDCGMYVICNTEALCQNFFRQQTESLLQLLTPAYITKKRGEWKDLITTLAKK

[3] = molecular target: T3, Sentrin-specific protease 7 (Homo sapiens, UniProt Q9BQF6); experiment: inhibition of human SENP7 cleavage activity – biochemical, luminescence, SAR follow-up (AID 504497); assay type: functional
T3 sequence (Q9BQF6 whole entry): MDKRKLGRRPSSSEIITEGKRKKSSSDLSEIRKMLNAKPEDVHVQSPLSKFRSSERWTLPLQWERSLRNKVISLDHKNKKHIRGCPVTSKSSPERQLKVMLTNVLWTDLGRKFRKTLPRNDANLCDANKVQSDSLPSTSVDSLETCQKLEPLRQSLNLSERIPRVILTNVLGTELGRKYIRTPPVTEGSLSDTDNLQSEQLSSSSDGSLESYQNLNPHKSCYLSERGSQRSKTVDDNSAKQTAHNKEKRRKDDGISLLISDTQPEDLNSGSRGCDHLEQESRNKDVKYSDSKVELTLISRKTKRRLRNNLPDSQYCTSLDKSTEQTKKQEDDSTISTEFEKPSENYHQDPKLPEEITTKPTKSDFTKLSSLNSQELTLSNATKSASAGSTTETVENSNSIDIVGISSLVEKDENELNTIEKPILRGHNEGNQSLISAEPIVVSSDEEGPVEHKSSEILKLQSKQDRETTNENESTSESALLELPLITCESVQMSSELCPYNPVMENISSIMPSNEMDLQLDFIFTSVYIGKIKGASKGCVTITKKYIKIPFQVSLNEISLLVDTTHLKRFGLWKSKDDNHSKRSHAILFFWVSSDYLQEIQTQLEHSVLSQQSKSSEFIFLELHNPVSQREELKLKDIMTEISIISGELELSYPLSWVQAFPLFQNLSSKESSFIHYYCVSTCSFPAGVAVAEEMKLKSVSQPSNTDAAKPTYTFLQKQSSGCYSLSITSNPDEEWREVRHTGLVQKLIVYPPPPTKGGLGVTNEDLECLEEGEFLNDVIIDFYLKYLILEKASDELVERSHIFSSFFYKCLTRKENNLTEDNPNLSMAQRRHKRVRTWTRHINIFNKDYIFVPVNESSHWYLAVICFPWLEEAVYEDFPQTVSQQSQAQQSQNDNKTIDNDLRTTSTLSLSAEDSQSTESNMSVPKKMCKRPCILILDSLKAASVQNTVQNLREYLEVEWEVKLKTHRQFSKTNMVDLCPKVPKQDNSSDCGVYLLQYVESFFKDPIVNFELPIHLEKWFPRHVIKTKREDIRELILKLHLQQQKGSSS

Caspase-3 [4] = molecular target: T4, Caspase-3 (Homo sapiens, UniProt P42574); experiment: SAR Analysis of small molecule inhibitors of Sentrin-specific proteases (SENPs) using a Caspase-3 Selectivity assay. [Related pubchem assays (depositor defined):AID2540, AID2599, AID434973, AID489001]; assay type: functional
T4 sequence (P42574 whole entry): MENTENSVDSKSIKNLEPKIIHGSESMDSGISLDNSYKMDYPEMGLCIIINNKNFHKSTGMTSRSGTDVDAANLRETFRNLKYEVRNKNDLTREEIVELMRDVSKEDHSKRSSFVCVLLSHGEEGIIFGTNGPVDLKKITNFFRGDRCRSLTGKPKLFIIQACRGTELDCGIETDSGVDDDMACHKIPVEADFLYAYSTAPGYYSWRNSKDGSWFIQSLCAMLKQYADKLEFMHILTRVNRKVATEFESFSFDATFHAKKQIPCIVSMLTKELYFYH

[5] = molecular target: T2, Sentrin-specific protease 8; experiment: inhibition of sentrin protease 8 – biochemical, luminescence, set 2, SAR follow-up (AID 588601); assay type: functional
[6] = molecular target: T1, Sentrin-specific protease 6; experiment: inhibition of human SENP6 catalytic domain – biochemical, luminescence, set 2, SAR follow-up (AID 588598); assay type: functional
[7] = molecular target: T3, Sentrin-specific protease 7; experiment: inhibition of human SENP7 cleavage activity – biochemical, luminescence, set 2, SAR follow-up (AID 588600); assay type: functional
Caspase-3 [8] = molecular target: T4, Caspase-3; experiment: inhibition of recombinant caspase-3 activity – biochemical, luminescence, set 2, selectivity assay for SENP protease inhibitor project, SAR follow-up (AID 588599); assay type: functional
HEK293 [9] = experiment: SAR Analysis of small molecule inhibitors of T-cell specific antigen receptor-induced NF-kB activation in a HEK-293T cell line using a luminescence assay - Set 2. [Related pubchem assays (depositor defined):AID435003, AID435012, AID489026]; assay type: functional, cell-based; settings: Homo sapiens
HEK293 [10] = experiment: EBV LMP1 TES2 canonical NF-kB signalling blockers – cell-based, HEK293, luciferase, cherry-pick, dose response (AID 588343); assay type: functional; settings: Homo sapiens
[11] = molecular target: ATP-dependent molecular chaperone HSP82 (Candida albicans (strain WO-1) (Yeast), UniProt C4YTQ8); experiment: steroid-induced GRE reporter decrease in yeast – S. cerevisiae, luminescence, Hsp90 inhibitor project, dose response (AID 2400); assay type: functional, cell-based;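 note: beta-galactosidase luminescence from glucocorticoid response element reporter as proxy for Hsp90 function; inhibitor potency where signal loss means Hsp90 inhibition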
HEK293 [12] = experiment: HEK293T cell viability loss, resazurin readout – resazurin fluorescence, cytotoxicity control for NF-kB activator project, SAR follow-up (AID 493251); assay type: functional, cell-based; settings: Homo sapiens
Streptococcus = experiment: GAS UMAA2166 growth inhibition – luminescence, BacTiterGlo, counter-screen for streptokinase expression inhibitor project, dose response (AID 1915); assay type: functional, organism-based;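 note: potency for reduction of bacterial viability or growth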
Jurkat = experiment: SAR Analysis of small molecule inhibitors of T-cell specific antigen receptor-induced NF-kB activation in a Jurkat cell line using a luminescence assay - Set 2. [Related pubchem assays (depositor defined):AID435003, AID435012, AID465]; assay type: functional, cell-based; settings: Homo sapiens
[13] = HEK-293T viability loss after treatment – luminescence, T-cell screen hits, cytotoxicity control for TCR NF-kB inhibitor project, dose response (AID 489026); assay type: functional, cell-based;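 note: cells exposed to compound about 14 hours before the viability readout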
cells [14] = assay type: functional, cell-based
[15] = fluconazole-exposed Candida albicans growth modulators – fluorescence, retest, confirmation (AID 2467); assay type: functional, cell-based
cells [16] = assay type: functional, cell-based; remark: listed apart in the source
[17] = test system: Streptococcus sp. 'group A'; experiment: Streptococcus pyogenes SK(-)GAS viability under kanamycin – luminescence, BacTiterGlo, confirmation, counter-screen for streptokinase expression inhibitor project, dose response (AID 1900); assay type: functional, organism-based
[18] = NIH3T3 cell viability loss – ATP luminescence, mouse fibroblasts, counter-screen, dose response (AID 2010); assay type: functional, cell-based;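 note: cells exposed to compound for about 90 hours before reading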
[19] = NIH-3T3 fibroblast cytotoxicity, dose response, cytotoxicity control, cell-based, fluorescence, Alamar Blue, secondary assay (AID 2327); assay type: functional;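 note: NIH-3T3 mouse fibroblasts cultured with fluconazole at 8 µg/mL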
[20] = molecular target: Serine/threonine-protein phosphatase (Candida dubliniensis (strain CD36 / CBS 7987 / NCPF 3949 / NRRLY-17841) (Yeast), UniProt B9W6M3); experiment: blockers of CaCl2-induced CDRE-lacZ signaling – S. cerevisiae, luminescence, secondary, dose response (AID 2388); assay type: functional, cell-based;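 note: yeast reporter cells carrying a calcineurin-responsive lacZ construct stimulated with calcium chloride; luminescent beta-galactosidase reporter signal in whole cells rather than isolated phosphatase activity; potency for inhibition where a drop in reporter signal means calcineurin blockade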
[21] = Trypanosoma cruzi growth suppression in host cells – NIH3T3 host cells, beta-gal luminescence, confirmation (AID 2044); assay type: functional, cell-based;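 note: intracellular parasites grown in NIH/3T3 mouse fibroblasts as host cells; luminescent beta-galactosidase reporter signal from transgenic T. cruzi replicating inside host cells; inhibitors lower the luminescence signal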
[22] = non-specific 3'UTR reporter inhibition in Clone20-Shn3RL – cell-based, Renilla luciferase, cherry-picked, counter-screen for Shn3 inhibitor project, dose response (AID 624133); assay type: functional
[23] = loss of viability in HepG2 cells – cell-based, CellTiter-Glo, cherry-picked, cytotoxicity control for Shn3 inhibitor project, dose response (AID 624134); assay type: functional
INS1 = experiment: INS-1E survival protection against cytokine death – cell-based, luminescence, retest, dose response (AID 449756); assay type: functional; settings: Rattus norvegicus;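 note: cell death triggered by IL-1 beta plus TNF-alpha plus IFN-gamma mixture; protective hits raise ATP signal compared with cytokine alone wells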
[24] = reduction of Shn3 3'UTR-driven luciferase in osteoblasts – cell-based, Clone20 osteoblasts, firefly luciferase, cherry-picked, dose response (AID 624132); assay type: functional;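 note: firefly luciferase luminescence from reporter carrying the Shn3 3'UTR in osteoblasts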

Chain of Serine/threonine-protein phosphatase (B9W6M3 whole entry): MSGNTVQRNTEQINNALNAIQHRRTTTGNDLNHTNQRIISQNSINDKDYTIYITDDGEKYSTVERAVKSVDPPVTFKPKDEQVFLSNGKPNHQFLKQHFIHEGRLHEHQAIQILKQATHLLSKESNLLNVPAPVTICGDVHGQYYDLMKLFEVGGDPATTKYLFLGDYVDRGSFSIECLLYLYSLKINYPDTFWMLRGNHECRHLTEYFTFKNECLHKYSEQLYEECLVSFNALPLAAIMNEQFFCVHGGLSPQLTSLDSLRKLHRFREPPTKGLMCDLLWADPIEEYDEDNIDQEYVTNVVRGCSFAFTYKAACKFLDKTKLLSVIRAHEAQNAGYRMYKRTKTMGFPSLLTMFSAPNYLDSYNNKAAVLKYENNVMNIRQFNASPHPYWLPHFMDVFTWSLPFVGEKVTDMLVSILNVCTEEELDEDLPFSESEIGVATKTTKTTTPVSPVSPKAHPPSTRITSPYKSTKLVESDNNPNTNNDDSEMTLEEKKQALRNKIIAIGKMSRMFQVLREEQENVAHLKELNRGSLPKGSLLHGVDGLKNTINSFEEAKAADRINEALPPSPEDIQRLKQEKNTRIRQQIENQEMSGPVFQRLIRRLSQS
Chain of ATP-dependent molecular chaperone HSP82 (C4YTQ8 whole entry): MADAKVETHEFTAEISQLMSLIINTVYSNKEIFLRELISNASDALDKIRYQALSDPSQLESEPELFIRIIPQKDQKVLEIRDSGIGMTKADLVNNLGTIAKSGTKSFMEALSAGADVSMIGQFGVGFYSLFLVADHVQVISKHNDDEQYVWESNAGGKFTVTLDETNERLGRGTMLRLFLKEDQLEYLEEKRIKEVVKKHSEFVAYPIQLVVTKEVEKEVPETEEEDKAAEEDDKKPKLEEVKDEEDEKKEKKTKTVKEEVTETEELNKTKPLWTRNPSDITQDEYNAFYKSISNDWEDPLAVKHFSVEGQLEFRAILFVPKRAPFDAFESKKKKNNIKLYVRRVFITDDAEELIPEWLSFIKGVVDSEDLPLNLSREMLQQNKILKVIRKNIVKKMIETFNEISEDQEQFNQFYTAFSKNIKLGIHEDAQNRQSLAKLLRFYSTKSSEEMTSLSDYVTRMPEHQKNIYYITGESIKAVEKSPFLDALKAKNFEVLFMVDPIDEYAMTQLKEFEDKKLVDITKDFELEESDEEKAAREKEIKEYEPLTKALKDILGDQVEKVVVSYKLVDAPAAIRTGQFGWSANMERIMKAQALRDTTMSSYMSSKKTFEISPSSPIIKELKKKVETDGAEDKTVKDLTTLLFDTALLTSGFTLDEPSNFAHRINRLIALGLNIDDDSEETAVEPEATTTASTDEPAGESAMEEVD

- IC50 [1]: > 99 µM (inactive)
- IC50 [3]: 2.66 µM (active)
- IC50 (Caspase-3 [4]): 23.7 µM (active)
SMILES: CC(C)C(=O)Nc1ccc(-c2nc3cc(Cl)ccc3o2)cc1
- IC50 [2]: > 99 µM (inactive)

- IC50 [6]: 94.5 µM (active)
- IC50 [7]: 88.8 µM (active)
- IC50 (Caspase-3 [8]): 50.7 µM (active)
SMILES: O=C(NCC[S+]([O-])c1c(-c2ccc(F)cc2)[nH]c2ccccc12)C(=O)c1c[nH]c2ccccc12 (configuration not stated)
- IC50 [5]: 84 µM (active)

SMILES: CCCCC(=O)NC(c1ccc(Cl)cc1Cl)c1ccc2cccnc2c1O (configuration not stated)
- IC50 (HEK293 [9]): 3.23 µM (active)
- AC50 (HEK293 [10]): 4.57 µM (active)
- EC50 [11]: > 150 µM (inactive)
- IC50 (HEK293 [12]): 26.8 µM (inactive)
- EC50 (Streptococcus): 2.12 µM (active)
- IC50 (Jurkat): 3.7 µM (active)
- IC50 [13]: > 80 µM (inactive)
- EC50 (cells [14]): > 350 µM (not active)
- EC50 [15]: 0.698 µM (active)
- EC50 (cells [16]): 8.53 µM (active)
- EC50 [17]: 1.29 µM (active)
- EC50 [18]: 0.57 µM (active)
- EC50 [19]: 13.3 µM (active)
- EC50 [20]: > 180 µM (inactive)
- EC50 [21]: 0.126 µM (active)
- AC50 [22]: 0.861 µM (active)
- AC50 [23]: > 70 µM (inactive)
- AC50 (INS1): 0.422 µM (active)
- AC50 [24]: 0.67 µM (active)
